Key:
Assay type in all cases: in vivo
[1] = tested on: Yellow Fever Mosquito (Aedes aegypti, AEDSAE); settings: about 1 day-old larvae, 4000 ppm master solution diluted, 3 days, room temperature
Method: Insecticidal Test for Yellow Fever Mosquito (Aedes aegypti, AEDSAE) (“YFM”)
Master plates containing 400 μg of a molecule dissolved in 100 μL of dimethyl sulfoxide (DMSO) (equivalent to a 4000 ppm solution) are used. A master plate of assembled molecules contains 15 μL per well. To this plate, 135 μL of a 90:10 water/acetone mixture is added to each well. A robot (Biomek® NXP Laboratory Automation Workstation) is programmed to dispense 15 μL aspirations from the master plate into an empty 96-well shallow plate (“daughter” plate). There are 6 reps (“daughter” plates) created per master. The created “daughter” plates are then immediately infested with YFM larvae.
The day before plates are to be treated, mosquito eggs are placed in Millipore water containing liver powder to begin hatching (4 g. into 400 mL). After the “daughter” plates are created using the robot, they are infested with 220 μL of the liver powder/larval mosquito mixture (about 1 day-old larvae). After plates are infested with mosquito larvae, a non-evaporative lid is used to cover the plate to reduce drying. Plates are held at room temperature for 3 days prior to grading. After 3 days, each well is observed and scored based on mortality. In the reporting of the results, the “YFM Rating Table” was used.

[2] = tested on: Beet Armyworm (Spodoptera exigua, LAPHEG); assay: Insecticidal test for beet armyworm (BAW), 128-well diet tray assay; settings: 168 h, 50 μg/cm^2 on artificial diet, second instar larvae, five to seven days, 25° C., read-out: BAW rating, % Control (or Mortality)
Method: Insecticidal Test for Beet Armyworm (Spodoptera exigua, LAPHEG) (“BAW”)
Bioassays on beet armyworm (BAW; Spodoptera exigua: Lepidoptera) are conducted using a 128-well diet tray assay. One to five second instar BAW larvae are placed in each well (3 mL) of the diet tray that had been previously filled with 1 mL of artificial diet to which 50 μg/cm^2 of the test compound (dissolved in 50 μL of 90:10 acetone-water mixture) had been applied (to each of eight wells) and then allowed to dry. Trays are covered with a clear self-adhesive cover, vented to allow gas exchange, and held at 25° C., 14:10 light-dark for five to seven days. Percent mortality is recorded for the larvae in each well; activity in the eight wells is then averaged. In the reporting of the results, the “BAW & CL Rating Table” was used.

[3] = tested on: Cabbage Looper (Trichloplusia ni, TRIPNI); assay: Insecticidal test for cabbage looper (CL), 128-well diet tray assay; settings: Trichoplusia ni, 168 h; 50 μg/cm^2 on artificial diet, second instar larvae, five to seven days, 25° C.; read-out: CL rating, % Control (or Mortality)
Method: Insecticidal Test for Cabbage Looper (Trichloplusia ni, TRIPNI) (“CL”)
Bioassays on cabbage looper (CL; Trichloplusia ni: Lepidoptera) are conducted using a 128-well diet tray assay. One to five second instar CL larvae are placed in each well (3 mL) of the diet tray that had been previously filled with 1 mL of artificial diet to which 50 μg/cm^2 of the test compound (dissolved in 50 μL of 90:10 acetone-water mixture) had been applied (to each of eight wells) and then allowed to dry. Trays are covered with a clear self-adhesive cover, vented to allow gas exchange, and held at 25° C., 14:10 light-dark for five to seven days. Percent mortality is recorded for the larvae in each well; activity in the eight wells is then averaged. In the reporting of the results, the “BAW & CL Rating Table” was used.

| SMILES | YFM rating, % Control (or Mortality) [1] | mortality at 50 µg/cm2 [2] [%] | mortality at 50 µg/cm2 [3] [%] |
| --- | --- | --- | --- |
| CC(C)c1ccccc1N1C(=O)CS/C1=N\C(=O)OCCc1ccc(-c2ncn(-c3ccc(OC(F)(F)F)cc3)n2)cc1 [A2, 4-(1-(4-(Trifluoromethoxy)phenyl)-1H-1,2,4-triazol-3-yl)phenethyl (Z)-(3-(2-isopropylphenyl)-4-oxothiazolidin-2-ylidene)carbamate] | A (80-100) | 50 to 100 | 50 to 100 |
| CCOc1ccccc1N1C(=O)CS/C1=N\C(=O)OCCc1ccc(-c2ncn(-c3ccc(OC(F)(F)F)cc3)n2)cc1 [A5, 4-(1-(4-(Trifluoromethoxy)phenyl)-1H-1,2,4-triazol-3-yl)phenethyl (Z)-(3-(2-ethoxyphenyl)-4-oxothiazolidin-2-ylidene)carbamate] | A (80-100) | 0 to 50 | 50 to 100 |
| CCCCc1ccccc1N1C(=O)CS/C1=N\C(=O)OCCc1ccc(-c2ncn(-c3ccc(OC(F)(F)F)cc3)n2)cc1 [A6, 4-(1-(4-(Trifluoromethoxy)phenyl)-1H-1,2,4-triazol-3-yl)phenethyl (Z)-(3-(2-butylphenyl)-4-oxothiazolidin-2-ylidene)carbamate] | A (80-100) | 50 to 100 | 50 to 100 |
| O=C(/N=C1\SCC(=O)N1c1ccccc1CCC1CC1)OCCc1ccc(-c2ncn(-c3ccc(OC(F)(F)F)cc3)n2)cc1 [A7, 4-(1-(4-(Trifluoromethoxy)phenyl)-1H-1,2,4-triazol-3-yl)phenethyl (Z)-(3-(2-(2-cyclopropylethyl)phenyl)-4-oxothiazolidin-2-ylidene)carbamate] | A (80-100) | 0 to 50 | 50 to 100 |
| O=C(/N=C1\SCC(=O)N1c1ccccc1CCC(F)(F)F)OCCc1ccc(-c2ncn(-c3ccc(OC(F)(F)F)cc3)n2)cc1 [A8, 4-(1-(4-(Trifluoromethoxy)phenyl)-1H-1,2,4-triazol-3-yl)phenethyl (Z)-(4-oxo-3-(2-(3,3,3-trifluoropropyl)phenyl)thiazolidin-2-ylidene)carbamate] | A (80-100) | 50 to 100 | 50 to 100 |
| O=C(/N=C1\SCC(=O)N1c1ccccc1/C=C/C(F)(F)F)OCCc1ccc(-c2ncn(-c3ccc(OC(F)(F)F)cc3)n2)cc1 [A9, 4-(1-(4-(Trifluoromethoxy)phenyl)-1H-1,2,4-triazol-3-yl)phenethyl ((Z)-4-oxo-3-(2-((E)-3,3,3-trifluoroprop-1-en-1-yl)phenyl)thiazolidin-2-ylidene)carbamate] | A (80-100) | 50 to 100 | 50 to 100 |
| COc1ccc(N2C(=O)CS/C2=N\C(=O)OCCc2ccc(-c3ncn(-c4ccc(OC(F)(F)F)cc4)n3)cc2)c(C)c1 [A10, 4-(1-(4-(Trifluoromethoxy)phenyl)-1H-1,2,4-triazol-3-yl)phenethyl (Z)-(3-(4-methoxy-2-methylphenyl)-4-oxothiazolidin-2-ylidene)carbamate] | A (80-100) | 0 | 50 to 100 |
| Cc1ccc(F)c(N2C(=O)CS/C2=N\C(=O)OCCc2ccc(-c3ncn(-c4ccc(OC(F)(F)F)cc4)n3)cc2)c1 [A11, 4-(1-(4-(Trifluoromethoxy)phenyl)-1H-1,2,4-triazol-3-yl)phenethyl (Z)-(3-(2-fluoro-5-methylphenyl)-4-oxothiazolidin-2-ylidene)carbamate] | A (80-100) | 0 to 50 | 50 to 100 |
| Cc1ccc(Cl)c(N2C(=O)CS/C2=N\C(=O)OCCc2ccc(-c3ncn(-c4ccc(OC(F)(F)F)cc4)n3)cc2)c1 [A12, 4-(1-(4-(Trifluoromethoxy)phenyl)-1H-1,2,4-triazol-3-yl)phenethyl (Z)-(3-(2-chloro-5-methylphenyl)-4-oxothiazolidin-2-ylidene)carbamate] | A (80-100) | 50 to 100 | 50 to 100 |
| COc1ccc(C)cc1N1C(=O)CS/C1=N\C(=O)OCCc1ccc(-c2ncn(-c3ccc(OC(F)(F)F)cc3)n2)cc1 [A13, 4-(1-(4-(Trifluoromethoxy)phenyl)-1H-1,2,4-triazol-3-yl)phenethyl (Z)-(3-(2-methoxy-5-methylphenyl)-4-oxothiazolidin-2-ylidene)carbamate] | A (80-100) | 50 to 100 | 50 to 100 |
| Cc1ccc(C(F)(F)F)c(N2C(=O)CS/C2=N\C(=O)OCCc2ccc(-c3ncn(-c4ccc(OC(F)(F)F)cc4)n3)cc2)c1 [A14, 4-(1-(4-(Trifluoromethoxy)phenyl)-1H-1,2,4-triazol-3-yl)phenethyl (Z)-(3-(5-methyl-2-(trifluoromethyl)phenyl)-4-oxothiazolidin-2-ylidene)carbamate] | A (80-100) | 50 to 100 | 50 to 100 |
| CCCc1ccc(C)cc1N1C(=O)CS/C1=N\C(=O)OCCc1ccc(-c2ncn(-c3ccc(OC(F)(F)F)cc3)n2)cc1 [A15, 4-(1-(4-(Trifluoromethoxy)phenyl)-1H-1,2,4-triazol-3-yl)phenethyl (Z)-(3-(5-methyl-2-propylphenyl)-4-oxothiazolidin-2-ylidene)carbamate] | A (80-100) | 50 to 100 | 50 to 100 |
| CCOc1ccc(C)cc1N1C(=O)CS/C1=N\C(=O)OCCc1ccc(-c2ncn(-c3ccc(OC(F)(F)F)cc3)n2)cc1 [A16, 4-(1-(4-(Trifluoromethoxy)phenyl)-1H-1,2,4-triazol-3-yl)phenethyl (Z)-(3-(2-ethoxy-5-methylphenyl)-4-oxothiazolidin-2-ylidene)carbamate] | A (80-100) | 50 to 100 | 50 to 100 |
| Cc1cc(N2C(=O)CS/C2=N\C(=O)OCCc2ccc(-c3ncn(-c4ccc(OC(F)(F)F)cc4)n3)cc2)c(C(C)C)cc1F [A17, 4-(1-(4-(Trifluoromethoxy)phenyl)-1H-1,2,4-triazol-3-yl)phenethyl (Z)-(3-(4-fluoro-2-isopropyl-5-methylphenyl)-4-oxothiazolidin-2-ylidene)carbamate] | A (80-100) | 50 to 100 | 50 to 100 |
| Cc1cc(Cl)c(N2C(=O)CS/C2=N\C(=O)OCCc2ccc(-c3ncn(-c4ccc(OC(F)(F)F)cc4)n3)cc2)cc1C [A18, 4-(1-(4-(Trifluoromethoxy)phenyl)-1H-1,2,4-triazol-3-yl)phenethyl (Z)-(3-(2-chloro-4,5-dimethylphenyl)-4-oxothiazolidin-2-ylidene)carbamate] | D (No activity noticed in this bioassay) | 0 | 0 |
| Cc1ccc(C(C)C)c(N2C(=O)CS/C2=N\C(=O)OC(C)Cc2ccc(-c3ncn(-c4ccc(OC(F)(F)F)cc4)n3)cc2)c1 (centres unmarked) [A19, 1-(4-(1-(4-(Trifluoromethoxy)phenyl)-1H-1,2,4-triazol-3-yl)phenyl)propan-2-yl (Z)-(3-(2-isopropyl-5-methylphenyl)-4-oxothiazolidin-2-ylidene)carbamate] | B (More than 0-Less than 80) | 50 to 100 | 50 to 100 |
| Cc1ccc(C(C)C)c(-n2ccs/c2=N\C(=O)OC(C)Cc2ccc(-c3ncn(-c4ccc(OC(F)(F)F)cc4)n3)cc2)c1 (centres unmarked) [A55, 1-(4-(1-(4-(Trifluoromethoxy)phenyl)-1H-1,2,4-triazol-3-yl)phenyl)propan-2-yl (Z)-(3-(2-isopropyl-5-methylphenyl)thiazol-2(3H)-ylidene)carbamate] |  | 50 to 100 | 50 to 100 |
